Laboratory results published in PubChem BioAssay AID179 (DTP/NCI, 2004).
pEC50, pIC50: −log10 of the molar value. Activity calls are given as the source filed them.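 The calls were made as follows: active = compounds giving half or more protection of infected cells from virus-caused growth loss, again on retest; inactive = the rest.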

Test system: CEM cells HIV-1 protection, formazan growth assay
Test: NCI AIDS Antiviral Assay
Conditions: for pIC50: measured here: growth of uninfected CEM cells
Method in brief: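 CEM (human) cells, HIV-1 infected vs uninfected, 5-point dosing, formazan growth read-out. Retest threshold 50% protection.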

SMILES	pEC50	pIC50	outcome
Cn1cc(NC(=O)Nc2cc(C(=O)Nc3cc(C(=O)Nc4ccc5cc(S(=O)(=O)O)cc(S(=O)(=O)O)c5c4)n(C)c3)n(C)c2)cc1C(=O)Nc1cc(C(=O)Nc2ccc3cc(S(=O)(=O)O)cc(S(=O)(=O)O)c3c2)n(C)c1	4.47	< 4.00	–
CN1CCCC(O)C1CNC12CC3CC(CC(C3)C1)C2 (stereo unspecified)	< 3.10	3.61	–
FC(F)(F)c1cccc(C=NC23CC4CC(CC(C4)C2)C3)c1	< 4.77	< 4.77	–
CC(=O)Nc1ccccc1/C(C#N)=C/c1ccccc1	< 3.70	< 3.70	–
CCN(CC)c1cccc2c1/C(=N/O)CCCC2	< 3.70	3.92	–
COC(=O)C(=O)C(C(=O)OC)C(=O)C(=O)Nc1cc(Cl)c(C)cc1S(=O)(=O)O (stereo unspecified)	< 3.24	< 3.24	–
N[C@@H]1c2c(I)sc(I)c2C(=O)[C@@H]1O	< 3.70	5.28	–
COC(=S)C12CC3CC(CC(C3)C1)C2	–	–	inactive
CC1CN=C(Nc2ccc(F)cc2F)S1 (stereo unspecified)	< 3.70	< 3.70	–
Clc1cccc(Cl)c1C1SCc2nc3ccccc3n21 (stereo unspecified)	6.65	4.66	–
NC(CSS(=O)(=O)O)=NC1CCCCC1	< 3.70	3.86	–
C=CCN(c1cc(OC)c(NC(C)=O)cc1[N+](=O)[O-])S(C)(=O)=O	< 3.70	< 3.70	–
CC(C)N(C(=O)C12CC3CC(CC(C3)C1)C2)C(C)C	< 3.87	4.38	–
CC1(C)C(C#N)C(=O)N=C(N)C1C(N)=O (stereo unspecified)	< 3.70	< 3.70	–
CN(C)C1C(=O)C(C(N)=O)=C(O)C2(O)C(=O)C3=C(O)c4c(O)cccc4C(C)(O)C3CC12.[Cl][Sb]([Cl])[Cl] (stereo unspecified)	< 3.70	4.45	–
COC(=O)c1cc2cc(OC)c(OC)cc2cc(C(=O)OC)c1=O	< 4.97	< 4.97	–
CCOC(=O)C1=CC(C(C)CC(=O)CC(=O)O)CC1 (stereo unspecified)	–	–	active
[Cu+2].[O-]/C(=N\N=C/c1cccc(C(F)(F)F)c1)c1ccncc1.[O-]/C(=N\N=C\c1cccc(C(F)(F)F)c1)c1ccncc1	< 4.00	5.25	–
O=C(Nc1ccc(Cl)c(C(F)(F)F)c1)C(=O)c1c(O)c2ccccc2oc1=O	< 3.64	3.72	–
COC1=C(OC)C(=O)C(C/C=C(\C)CC/C=C(\C)CC/C=C(\C)CC/C=C(\C)CC/C=C(\C)CC/C=C(\C)CC/C=C(\C)CC/C=C(\C)CC/C=C(\C)CCC=C(C)C)=C(C)C1=O	< 3.96	< 3.96	–
Clc1cc2cc3c(Br)coc3nc2cc1Cl	< 4.79	< 4.79	–

SMILES	pEC50	pIC50	outcome
COc1ccc(C(=O)C(CN2CCOCC2)CN2CCOCC2)cc1	< 3.70	5.88	–
C=C1C(O)C2(O)OCC34C(CC5C(C)=CC(=O)C(O)C5(C)C23)OC(=O)C(OC(=O)C/C=C(\C)CCCCC)C14 (stereo unspecified)	< 4.32	7.82	–
Cn1c(=Nc2ccc(Cl)cc2)sc2ccccc21	< 3.70	4.49	–
COC(=O)[C@]1(C)CC[C@]2(C)CC[C@]3(C)C4CC[C@@]5(COC(C)=O)C(CCC(=O)[C@@H]5C)[C@]4(C)CCC3(C)[C@@H]2C1 (stereo partly specified)	< 4.47	4.80	–
c1ccc(-c2[o+]c(-c3ccccc3)c(-c3ccccc3)c(-c3ccccc3)c2-c2ccccc2)cc1	–	–	inactive
CC/C(Cl)=N\OC(=O)Nc1ccc(F)c([N+](=O)[O-])c1	< 3.70	5.55	–
CN(C)c1ccc(/[N+]([O-])=C/c2cc(=O)c(OS(C)(=O)=O)co2)cc1	< 3.70	5.51	–
O=C(CCCC[n+]1ccccc1)Sc1ccccc1C(=O)Nc1ccc(S(=O)(=O)NC(=O)c2ccccc2)cc1	4.74	4.21	–
CCCCC(CC)C(=O)OC(C)CN(CC(C)OC(=O)C(CC)CCCC)C(=O)C(C)OC(=O)C(CC)CCCC (stereo unspecified)	–	–	inactive
[N-]=[N+]=NC1CC(n2ccc(=O)[nH]c2=O)OC1CO (stereo unspecified)	5.54	4.70	–
NCCN(CCN(C(=O)Nc1ccccc1)c1ccccc1)C(=O)Nc1ccccc1	< 3.70	4.45	–
O=[N+]([O-])C(=C(\Cl)NCCO)/C(Cl)=C(/Cl)Br	< 4.70	6.00	–
COc1cc2nc(/C=C/c3nc4cc(OC)c(OC)cc4[nH]3)[nH]c2cc1OC	< 3.70	4.24	–
Cn1c(=O)nc2n(-c3ccc(Cl)cc3Cl)c3ccccc3nc-2c1=O	–	–	inactive
C[C@@H]1N[C@@H](C)Cc2c(-c3ccc(O)c4ccccc34)c(O)cc(O)c21	< 3.70	4.51	–
O=C1NCCS(=O)(=O)N2CCC[C@@H]12	< 2.91	< 2.91	–
CC(C)(C)OC(=O)N1CCCCC(CCCC#Cc2ccccc2)C1=O (stereo unspecified)	< 4.42	< 4.42	–
O=c1oc2ccccc2c(O)c1C1c2c(c3ccccc3oc2=O)Oc2c1c(=O)oc1ccccc21	–	–	inactive
O=c1c2ccccc2n2n1CC(O)C2 (stereo unspecified)	–	–	inactive
CC12CCC(CC(=O)/C1=C(/Br)I)C2(C)C (stereo unspecified)	< 3.70	4.44	–
O=c1[nH]c2ncsc2c(=O)n1O	< 3.70	5.30	–

SMILES	pEC50	pIC50	outcome
CCOC(=O)C(CO)(CC(CO)(C(C)=O)C(=O)OCC)C(C)=O (stereo unspecified)	< 3.70	4.56	–
CCOC(=O)Cc1cnc(NC(NC(=O)CC)(C(F)(F)F)C(F)(F)F)s1	< 3.70	< 3.70	–
CC1(C)CC(=O)C(CC2C(=O)CC(C)(C)CC2=O)C(=O)C1	< 3.70	< 3.70	–
Cc1c(/C=N/NS(=O)(=O)c2ccccc2)no[n+]1[O-]	< 3.05	< 3.70	–
c1snnc1-c1cnns1	< 3.70	< 3.70	–
O=C1C(=Cc2ccc(Cl)cc2)C(=O)c2ccccc21	< 4.76	< 4.76	–
O=C(OCCN1CCNCC1)c1cc2ccccc2[nH]1	< 3.70	4.57	–
COc1ccc(C(=O)CC(c2ccc3c(c2)OCO3)c2c(O)c3ccccc3oc2=O)cc1OC (stereo unspecified)	< 3.70	4.05	–
CCCCn1cnc2c(SSc3ncnc4c3ncn4CCCC)ncnc21	< 3.70	4.97	–
Cc1c([N+](=O)[O-])c(=O)oc2cc3occc(=O)c3cc12	< 4.44	4.74	–
CC1OC(Oc2c(-c3cc(O)c(O)c(O)c3)oc3cc(O)cc(O)c3c2=O)C(O)C(O)C1O (stereo unspecified)	–	–	inactive
Cc1cccc(/C=N/NC(=S)N(C)CCc2ccccn2)n1	< 5.70	7.48	–
Cn1cc(B(O)O)c(=O)[nH]c1=O	< 3.70	< 3.70	–
Nc1cccc2cc(Cl)cnc12	< 3.70	< 3.70	–
C=CC[C@]12CC[C@H](O)[C@@]1(C)CCC(=O)/C2=N\N	–	–	inactive
CC(=O)N=C1N(/C=C2\C(=O)Oc3ccccc3C2=O)C(=O)/C(=C/c2cccc([N+](=O)[O-])c2)N1C	< 4.00	4.01	–
C=CCc1c(O)c2c(c3oc(=O)cc(C)c13)CC(C)O2 (stereo unspecified)	–	–	inactive
Cc1ccc(NNc2cc(=O)[nH]c(=O)[nH]2)cc1Cl	< 3.70	5.33	–
COC(=O)C1C2C(=O)NC(=O)C2C(c2ccc(-c3ccccc3)cc2)N1C1CCCCC1 (stereo unspecified)	< 3.87	4.72	–
COC(=O)c1ccccc1SSc1ccccc1C(=O)OC	< 3.70	4.73	–
CC(=O)Nc1ccc(C(=O)N[C@@H]2C(=O)N3[C@@H]2SC(C)(C)[C@@H]3C(=O)O)cn1	4.25	4.12	–
